Assay results published in US20030129629A1, “Methods and compositions for the identification, assessment, prevention, and therapy of human cancers” (Millennium Pharmaceuticals, Inc., priority 2000, published 2003).
Where two headings read alike, the source gives them in different places.

Columns and labels:
[1] = system: 60 cancer cell lines (NCI 60 cancer cell line series); assay: NCI-DTP in vitro cancer screen, sulforhodamine B (SRB) growth inhibition, 48 hour exposure; assay type: cell-based, human
Outline: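 Potency is given as mean −log{GI50} from dose–response curves, manually binned into Low, Medium or High sensitivity. Sixty NCI-DTP tumour lines were treated 48 h with a duplicate, five-dose, ten-fold dilution series, and growth read by SRB staining of cell mass.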

[2] = system: 60 cancer cell lines (NCI 60 cancer cell line series); settings: cited from earlier work

CN(Cc1cnc2nc(N)nc(N)c2n1)c1ccc(C(=O)N[C@@H](CCC(=O)O)C(=O)O)cc1 [Methotrexate]
5.1: −Log (GI50) ([2]; NSCLC HOP-92 CL1029)
3: classification of cell line as Low(1), Medium(2), High(3) sensitivity to compound ([1]; CNS SF-295 CL12015) | classification of cell line as Low(1), Medium(2), High(3) sensitivity to compound ([1]; CNS SF-539 CL12016) | classification of cell line as Low(1), Medium(2), High(3) sensitivity to compound ([1]; Colon HCT-15 CL4015) | classification of cell line as Low(1), Medium(2), High(3) sensitivity to compound ([1]; Colon HCT-116 CL4003) | classification of cell line as Low(1), Medium(2), High(3) sensitivity to compound ([1]; Leukemia K562(I) CL7005) | classification of cell line as Low(1), Medium(2), High(3) sensitivity to compound ([1]; Leukemia SR CL7019) | classification of cell line as Low(1), Medium(2), High(3) sensitivity to compound ([1]; Melanoma LOX IMVI CL10001) | classification of cell line as Low(1), Medium(2), High(3) sensitivity to compound ([1]; Melanoma UACC-62 CL10020) | classification of cell line as Low(1), Medium(2), High(3) sensitivity to compound ([1]; NSCLC A549/ATCC CL1004) | sensitivity classification Low(1)/Medium(2)/High(3) ([1]; NSCLC NCI-H460 CL1021) | sensitivity classification Low(1)/Medium(2)/High(3) ([1]; Renal SN12C CL9008)
1: classification of cell line as Low(1), Medium(2), High(3) sensitivity to compound ([1]; Breast BT-549 CL5013) | classification of cell line as Low(1), Medium(2), High(3) sensitivity to compound ([1]; Breast HS-578T CL5006) | classification of cell line as Low(1), Medium(2), High(3) sensitivity to compound ([1]; Breast MDA-MB-231 CL5005) | classification of cell line as Low(1), Medium(2), High(3) sensitivity to compound ([1]; Breast T-47D CL5014) | classification of cell line as Low(1), Medium(2), High(3) sensitivity to compound ([1]; Melanoma SK-MEL-2 CL10005) | classification of cell line as Low(1), Medium(2), High(3) sensitivity to compound ([1]; Melanoma SK-MEL-28 CL10008) | classification of cell line as Low(1), Medium(2), High(3) sensitivity to compound ([1]; NSCLC EKVX CL1008) | classification of cell line as Low(1), Medium(2), High(3) sensitivity to compound ([1]; NSCLC HOP-92 CL1029) | classification of cell line as Low(1), Medium(2), High(3) sensitivity to compound ([1]; NSCLC NCI-H226 CL1013) | sensitivity classification Low(1)/Medium(2)/High(3) ([1]; Ovarian OVCAR-4 CL6002) | sensitivity classification Low(1)/Medium(2)/High(3) ([1]; Renal A498 CL9013) | sensitivity classification Low(1)/Medium(2)/High(3) ([1]; Renal RXF-393 CL9016) | sensitivity classification Low(1)/Medium(2)/High(3) ([1]; Renal TK10 CL9024)
7.5: −Log (GI50) ([2]; Melanoma M14 CL10014) | −Log (GI50) ([2]; Renal 786-0 CL9018)
7.4: −Log (GI50) ([2]; Leukemia HL-60(I) CL7008)
5.0: −Log (GI50) ([2]; NSCLC EKVX CL1008)
2: classification of cell line as Low(1), Medium(2), High(3) sensitivity to compound ([1]; CNS SF-268 CL12014) | classification of cell line as Low(1), Medium(2), High(3) sensitivity to compound ([1]; CNS U251(I) CL12009) | classification of cell line as Low(1), Medium(2), High(3) sensitivity to compound ([1]; Colon COLO-250 CL4010) | classification of cell line as Low(1), Medium(2), High(3) sensitivity to compound ([1]; Colon HCC-2998 CL4002) | classification of cell line as Low(1), Medium(2), High(3) sensitivity to compound ([1]; Colon KM12 CL4017) | classification of cell line as Low(1), Medium(2), High(3) sensitivity to compound ([1]; Leukemia HL-60(I) CL7008) | classification of cell line as Low(1), Medium(2), High(3) sensitivity to compound ([1]; Leukemia RPMI-8226(I) CL7010) | classification of cell line as Low(1), Medium(2), High(3) sensitivity to compound ([1]; Melanoma SK-MEL-5 CL10007) | classification of cell line as Low(1), Medium(2), High(3) sensitivity to compound ([1]; NSCLC HOP-62 CL1026) | sensitivity classification Low(1)/Medium(2)/High(3) ([1]; NSCLC NCI-H23(I) CL1001) | sensitivity classification Low(1)/Medium(2)/High(3) ([1]; NSCLC NCI-H332M CL1017) | sensitivity classification Low(1)/Medium(2)/High(3) ([1]; Ovarian IGROV1 CL6010) | sensitivity classification Low(1)/Medium(2)/High(3) ([1]; Ovarian OVCAR-3 CL6001) | sensitivity classification Low(1)/Medium(2)/High(3) ([1]; Ovarian OVCAR-5 CL6003) | sensitivity classification Low(1)/Medium(2)/High(3) ([1]; Prostate DU-145 CL11003) | sensitivity classification Low(1)/Medium(2)/High(3) ([1]; Renal ACHN CL9023) | sensitivity classification Low(1)/Medium(2)/High(3) ([1]; Renal UO-31 CL9004)

COc1cc([C@@H]2c3cc4c(cc3[C@@H](O[C@@H]3O[C@@H]5CO[C@@H](c6cccs6)O[C@H]5[C@H](O)[C@H]3O)[C@H]3COC(=O)[C@H]23)OCO4)cc(OC)c1O [Teniposide]
2: classification of cell line as Low(1), Medium(2), High(3) sensitivity to compound ([1]; Breast BT-549 CL5013) | classification of cell line as Low(1), Medium(2), High(3) sensitivity to compound ([1]; Breast HS-578T CL5006) | classification of cell line as Low(1), Medium(2), High(3) sensitivity to compound ([1]; Breast MDA-MB-231 CL5005) | classification of cell line as Low(1), Medium(2), High(3) sensitivity to compound ([1]; Breast MDA-MB-435 CL5011) | classification of cell line as Low(1), Medium(2), High(3) sensitivity to compound ([1]; Breast MDA-N CL5012) | classification of cell line as Low(1), Medium(2), High(3) sensitivity to compound ([1]; Breast T-47D CL5014) | classification of cell line as Low(1), Medium(2), High(3) sensitivity to compound ([1]; CNS SF-268 CL12014) | classification of cell line as Low(1), Medium(2), High(3) sensitivity to compound ([1]; CNS SF-295 CL12015) | classification of cell line as Low(1), Medium(2), High(3) sensitivity to compound ([1]; CNS SF-539 CL12016) | classification of cell line as Low(1), Medium(2), High(3) sensitivity to compound ([1]; CNS SNB-19 CL12002) | classification of cell line as Low(1), Medium(2), High(3) sensitivity to compound ([1]; CNS SNB-75(I) CL12005) | classification of cell line as Low(1), Medium(2), High(3) sensitivity to compound ([1]; CNS U251(I) CL12009) | classification of cell line as Low(1), Medium(2), High(3) sensitivity to compound ([1]; Colon COLO-250 CL4010) | classification of cell line as Low(1), Medium(2), High(3) sensitivity to compound ([1]; Colon HCC-2998 CL4002) | classification of cell line as Low(1), Medium(2), High(3) sensitivity to compound ([1]; Colon HCT-15 CL4015) | classification of cell line as Low(1), Medium(2), High(3) sensitivity to compound ([1]; Colon HCT-116 CL4003) | classification of cell line as Low(1), Medium(2), High(3) sensitivity to compound ([1]; Colon HT29(I) CL4001) | classification of cell line as Low(1), Medium(2), High(3) sensitivity to compound ([1]; Colon KM12 CL4017) | classification of cell line as Low(1), Medium(2), High(3) sensitivity to compound ([1]; Colon SW-620 CL4009) | classification of cell line as Low(1), Medium(2), High(3) sensitivity to compound ([1]; Leukemia K562(I) CL7005) | classification of cell line as Low(1), Medium(2), High(3) sensitivity to compound ([1]; Leukemia RPMI-8226(I) CL7010) | classification of cell line as Low(1), Medium(2), High(3) sensitivity to compound ([1]; Melanoma LOX IMVI CL10001) | classification of cell line as Low(1), Medium(2), High(3) sensitivity to compound ([1]; Melanoma M14 CL10014) | classification of cell line as Low(1), Medium(2), High(3) sensitivity to compound ([1]; Melanoma MALME-3M CL10002) | classification of cell line as Low(1), Medium(2), High(3) sensitivity to compound ([1]; Melanoma SK-MEL-2 CL10005) | classification of cell line as Low(1), Medium(2), High(3) sensitivity to compound ([1]; Melanoma SK-MEL-28 CL10008) | sensitivity classification Low(1)/Medium(2)/High(3) ([1]; NSCLC NCI-H23(I) CL1001) | sensitivity classification Low(1)/Medium(2)/High(3) ([1]; NSCLC NCI-H522 CL1003) | sensitivity classification Low(1)/Medium(2)/High(3) ([1]; Ovarian IGROV1 CL6010) | sensitivity classification Low(1)/Medium(2)/High(3) ([1]; Ovarian OVCAR-3 CL6001) | sensitivity classification Low(1)/Medium(2)/High(3) ([1]; Ovarian OVCAR-5 CL6003) | sensitivity classification Low(1)/Medium(2)/High(3) ([1]; Ovarian OVCAR-8 CL6005) | sensitivity classification Low(1)/Medium(2)/High(3) ([1]; Ovarian SK-OV-3 CL6011) | sensitivity classification Low(1)/Medium(2)/High(3) ([1]; Prostate DU-145 CL11003) | sensitivity classification Low(1)/Medium(2)/High(3) ([1]; Prostate PC-3(I) CL11001) | sensitivity classification Low(1)/Medium(2)/High(3) ([1]; Renal 786-0 CL9018) | sensitivity classification Low(1)/Medium(2)/High(3) ([1]; Renal A498 CL9013) | sensitivity classification Low(1)/Medium(2)/High(3) ([1]; Renal ACHN CL9023) | sensitivity classification Low(1)/Medium(2)/High(3) ([1]; Renal RXF-393 CL9016) | sensitivity classification Low(1)/Medium(2)/High(3) ([1]; Renal SN12C CL9008) | sensitivity classification Low(1)/Medium(2)/High(3) ([1]; Renal TK10 CL9024)
1: classification of cell line as Low(1), Medium(2), High(3) sensitivity to compound ([1]; Breast MCF7/ADRr CL5002) | sensitivity classification Low(1)/Medium(2)/High(3) ([1]; NSCLC NCI-H332M CL1017) | sensitivity classification Low(1)/Medium(2)/High(3) ([1]; Ovarian OVCAR-4 CL6002) | sensitivity classification Low(1)/Medium(2)/High(3) ([1]; Renal UO-31 CL9004)
6.5: −Log (GI50) ([2]; NSCLC NCI-H226 CL1013)
3: classification of cell line as Low(1), Medium(2), High(3) sensitivity to compound ([1]; Breast MCF7(I) CL5001) | classification of cell line as Low(1), Medium(2), High(3) sensitivity to compound ([1]; Leukemia CCRF-CEM(I) CL7003) | classification of cell line as Low(1), Medium(2), High(3) sensitivity to compound ([1]; Leukemia HL-60(I) CL7008) | classification of cell line as Low(1), Medium(2), High(3) sensitivity to compound ([1]; Leukemia MOLT-4 CL7006) | classification of cell line as Low(1), Medium(2), High(3) sensitivity to compound ([1]; Leukemia SR CL7019) | sensitivity classification Low(1)/Medium(2)/High(3) ([1]; NSCLC NCI-H460 CL1021) | sensitivity classification Low(1)/Medium(2)/High(3) ([1]; Renal CAKI-1 CL9015)
6.0: −Log (GI50) ([2]; Melanoma SK-MEL-2 CL10005)
5.8: −Log (GI50) ([2]; Melanoma SK-MEL-28 CL10008)
